# Data taken from ChEMBL document CHEMBL3621145, “Synthesis of imidazothiadiazolebenzimidazole conjugates as mitochondrial apoptosis inducers” (Medchemcomm, 2014).
# Activity calls are given as the source filed them. The calls are words filed in the database; no cut-off is given here.
# Experiments:
# DU-145 = assay: Anticancer activity against human DU145 cells by MTT assay; type: functional, cell-based
# ME-180 [1] = assay: Anticancer activity against human ME180 cells by MTT assay; type: functional, cell-based
# A-375 = assay: Anticancer activity against human A375 cells by MTT assay; type: functional, cell-based
# A549 = assay: Anticancer activity against human A549 cells by MTT assay; type: functional, cell-based
# ME-180 [2] = assay: Induction of apoptosis in human ME180 cells assessed as early apoptotic cells at 1 uM for 24 hrs by annexin V/PI staining based flow cytometry (reference value: 0.2%); type: functional
# ME-180 [3] = assay: Induction of apoptosis in human ME180 cells assessed as DNA fragmentation at 1 uM after 48 hrs; type: functional, cell-based
# ME-180 [4] = assay: Induction of apoptosis in human ME180 cells assessed as nuclear fragmentation at 1 uM for 24 hrs by Hoechst staining analysis; type: functional, cell-based
# ME-180 [5] = assay: Cell cycle arrest in human ME180 cells assessed as accumulation at G2/M phase at 1 uM after 48 hrs by FACS analysis (reference value: 13.2%); type: functional
# ME-180 [6] = assay: Induction of apoptosis in human ME180 cells assessed as cytoplasmic condensation at 1 uM for 24 hrs by Hoechst staining analysis; type: functional, cell-based
# ME-180 [7] = assay: Cell cycle arrest in human ME180 cells assessed as accumulation at S phase at 0.5 uM after 48 hrs by FACS analysis (reference value: 19.3%); type: functional
# ME-180 [8] = assay: Cell cycle arrest in human ME180 cells assessed as accumulation at G2/M phase at 0.5 uM after 48 hrs by FACS analysis (reference value: 13.2%); type: functional
# ME-180 [9] = assay: Induction of apoptosis in human ME180 cells assessed as presence of apoptotic bodies at 1 uM for 24 hrs by Hoechst staining analysis; type: functional, cell-based
# ME-180 [10] = assay: Cell cycle arrest in human ME180 cells assessed as accumulation at SubG1 phase at 0.5 uM after 48 hrs by FACS analysis (reference value: 7.0%); type: functional
# ME-180 [11] = assay: Induction of apoptosis in human ME180 cells assessed as late apoptotic cells at 1 uM for 24 hrs by annexin V/PI staining based flow cytometry (reference value: 5%); type: functional
# ME-180 [12] = assay: Induction of apoptosis in human ME180 cells assessed as viable cells at 1 uM for 24 hrs by annexin V/PI staining based flow cytometry (reference value: 83.1%); type: functional; settings: ME-180, 24 h, read-out: Activity
# ME-180 [13] = assay: Cell cycle arrest in human ME180 cells assessed as accumulation at S phase at 1 uM after 48 hrs by FACS analysis (reference value: 19.3%); type: functional
# ME-180 [14] = assay: Cell cycle arrest in human ME180 cells assessed as accumulation at G1 phase at 1 uM after 48 hrs by FACS analysis (reference value: 59.9%); type: functional
# ME-180 [15] = assay: Induction to apoptosis in human ME180 cells assessed as increase in caspase-3 activity at 1 uM for 48 hrs relative to control; type: functional
# ME-180 [16] = assay: Cell cycle arrest in human ME180 cells assessed as accumulation at G1 phase at 0.5 uM after 48 hrs by FACS analysis (reference value: 59.9%); type: functional
# ME-180 [17] = assay: Induction of apoptosis in human ME180 cells assessed as mitochondrial membrane depolarization at 1 uM for 24 hrs by using JC-1 dye; type: functional, cell-based
# ME-180 [18] = assay: Cell cycle arrest in human ME180 cells assessed as accumulation at SubG1 phase at 1 uM after 48 hrs by FACS analysis (reference value: 7.0%); type: functional
# ME-180 [19] = assay: Induction of apoptosis in human ME180 cells assessed as necrotic cells at 1 uM for 24 hrs by annexin V/PI staining based flow cytometry (reference value: 11.7%); type: functional
# ME-180 [20] = assay: Cell cycle arrest in human ME180 cells assessed as accumulation at G2/M phase at <1 uM; type: functional, cell-based
Structure (SMILES),IC50 (DU-145),IC50 (A-375),IC50 (A549),IC50 (ME-180 [1]),further results
COc1ccc(-c2nc3sc(C)nn3c2-c2nc3cc(C)ccc3[nH]2)cc1,25.1 µM,10.9 µM,18.4 µM,8.7 µM,–
Cc1nn2c(-c3nc4c(C)c(C)ccc4[nH]3)c(-c3ccccc3)nc2s1,> 30 µM,22.9 µM,18.4 µM,15.8 µM,–
Cc1nn2c(-c3nc4cc(C)c(C)cc4[nH]3)c(-c3ccc(F)cc3)nc2s1,> 30 µM,7.6 µM,> 30 µM,6.1 µM,–
Cc1nn2c(-c3nc4cc(Cl)c(F)cc4[nH]3)c(-c3ccc(F)cc3)nc2s1,> 30 µM,17.7 µM,> 30 µM,13.9 µM,–
Cc1nn2c(-c3nc4cc(Cl)c(Cl)cc4[nH]3)c(-c3ccc(F)cc3)nc2s1,> 30 µM,14.2 µM,> 30 µM,10 µM,–
Cc1nn2c(-c3nc4ccccc4[nH]3)c(-c3ccc(F)cc3)nc2s1,> 30 µM,22.2 µM,> 30 µM,18.1 µM,–
Cc1nn2c(-c3nc4cc(Cl)c(F)cc4[nH]3)c(-c3ccccc3)nc2s1,> 30 µM,20.8 µM,16.4 µM,16.9 µM,–
Cc1nn2c(-c3nc4cc(Cl)ccc4[nH]3)c(-c3ccccc3)nc2s1,25.1 µM,7.7 µM,16.9 µM,5.4 µM,–
COC(=O)Nc1nc2cc(C(=O)c3cccs3)ccc2[nH]1 [NOCODAZOLE],2.1 µM,0.2 µM,2.5 µM,1.7 µM,–
COc1ccc(-c2nc3sc(C)nn3c2-c2nc3cc(C)c(C)cc3[nH]2)cc1,23.3 µM,12.5 µM,16.5 µM,12.3 µM,–
Cc1nn2c(-c3nc4ccccc4[nH]3)c(-c3ccccc3)nc2s1,> 30 µM,19.9 µM,16.6 µM,16.9 µM,–
COc1ccc(-c2nc3sc(C)nn3c2-c2nc3cc(Cl)c(F)cc3[nH]2)cc1,> 30 µM,6.8 µM,17.9 µM,4.6 µM,–

# Second part, led by results:
IC50 (DU-145),IC50 (A-375),IC50 (A549),Structure (SMILES),IC50 (ME-180 [1]),further results
10.7 µM,6.1 µM,9.8 µM,Cc1ccc(-c2nc3sc(C)nn3c2-c2nc3cc(C)ccc3[nH]2)cc1,4.5 µM,–
11.8 µM,1.04 µM,10.3 µM,Cc1ccc(-c2nc3sc(C)nn3c2-c2nc3cc(Cl)c(F)cc3[nH]2)cc1,0.7 µM,Activity (ME-180 [2]): 0.8%; Activity (ME-180 [3]): Active; Activity (ME-180 [4]): Active; Activity (ME-180 [5]): 2.3%; Activity (ME-180 [6]): Active; Activity (ME-180 [7]): 12.3%; Activity (ME-180 [8]): 6.7%; Activity (ME-180 [9]): Active; Activity (ME-180 [10]): 14.1%; Activity (ME-180 [11]): 16.5%; viability at 1 µM (ME-180 [12]): 73.1%; Activity (ME-180 [13]): 10.1%; Activity (ME-180 [14]): 75.7%; fold change (FC) (ME-180 [15]): 3; Activity (ME-180 [16]): 66.6%; Activity (ME-180 [17]): Active; Activity (ME-180 [18]): 11.6%; Activity (ME-180 [19]): 9.6%
20.6 µM,19.1 µM,19.4 µM,Cc1nn2c(-c3nc4cc(O)ccc4[nH]3)c(-c3ccccc3)nc2s1,16.4 µM,–
14.4 µM,20.4 µM,12.5 µM,Cc1ccc2[nH]c(-c3c(-c4ccccc4)nc4sc(C)nn34)nc2c1,15.8 µM,–
14.2 µM,5.8 µM,16.2 µM,COc1ccc(-c2nc3sc(C)nn3c2-c2nc3c(C)c(C)ccc3[nH]2)cc1,3.7 µM,–
19.9 µM,7.7 µM,11.7 µM,Cc1ccc2[nH]c(-c3c(-c4ccc(F)cc4)nc4sc(C)nn34)nc2c1,6.6 µM,–
7.3 µM,5.01 µM,4.4 µM,Cc1ccc(-c2nc3sc(C)nn3c2-c2nc3cc(Cl)ccc3[nH]2)cc1,3.6 µM,–
12.5 µM,11.4 µM,10.3 µM,Cc1ccc(-c2nc3sc(C)nn3c2-c2nc3c(C)c(C)ccc3[nH]2)cc1,9.7 µM,–
19.6 µM,5.2 µM,13.6 µM,Cc1nn2c(-c3nc4cc(C(F)(F)F)ccc4[nH]3)c(-c3ccccc3)nc2s1,3.9 µM,–
15.8 µM,4.3 µM,7.9 µM,COc1ccc(-c2nc3sc(C)nn3c2-c2nc3cc(Cl)ccc3[nH]2)cc1,2.6 µM,–
16.9 µM,18.1 µM,> 30 µM,Cc1nn2c(-c3nc4cc(F)ccc4[nH]3)c(-c3ccccc3)nc2s1,15.7 µM,–
14.4 µM,4.8 µM,10.2 µM,Cc1nn2c(-c3nc4cc(Cl)ccc4[nH]3)c(-c3ccc(F)cc3)nc2s1,1.9 µM,–
2.4 µM,1.2 µM,1.1 µM,COc1cccc2c1C(=O)c1c(O)c3c(c(O)c1C2=O)C[C@@](O)(C(=O)CO)C[C@@H]3O[C@H]1C[C@H](N)[C@H](O)[C@H](C)O1 [DOXORUBICIN],0.5 µM,Activity (ME-180 [2]): 0.7%; Activity (ME-180 [3]): Active; Activity (ME-180 [5]): 10.9%; Activity (ME-180 [20]): Active; Activity (ME-180 [11]): 15.1%; viability at 1 µM (ME-180 [12]): 67.5%; Activity (ME-180 [13]): 16.1%; Activity (ME-180 [14]): 64.8%; fold change (FC) (ME-180 [15]): 3; Activity (ME-180 [18]): 7.7%; Activity (ME-180 [19]): 16.8%
19.1 µM,2.8 µM,13.6 µM,Cc1nn2c(-c3nc4cc(Cl)c(Cl)cc4[nH]3)c(-c3ccccc3)nc2s1,0.5 µM,Activity (ME-180 [2]): 1%; Activity (ME-180 [3]): Active; Activity (ME-180 [4]): Active; Activity (ME-180 [5]): 1.6%; Activity (ME-180 [6]): Active; Activity (ME-180 [7]): 15.7%; Activity (ME-180 [8]): 10.4%; Activity (ME-180 [9]): Active; Activity (ME-180 [10]): 5.4%; Activity (ME-180 [11]): 22.6%; viability at 1 µM (ME-180 [12]): 58.7%; Activity (ME-180 [13]): 9.3%; Activity (ME-180 [14]): 72.4%; fold change (FC) (ME-180 [15]): 3; Activity (ME-180 [16]): 68.1%; Activity (ME-180 [17]): Active; Activity (ME-180 [18]): 16.3%; Activity (ME-180 [19]): 17.7%
15.8 µM,7.3 µM,12.7 µM,Cc1nn2c(-c3nc4cc(C(F)(F)F)ccc4[nH]3)c(-c3ccc(F)cc3)nc2s1,5.8 µM,–
19.8 µM,22.5 µM,> 30 µM,Cc1nn2c(-c3nc4cc(C)c(C)cc4[nH]3)c(-c3ccccc3)nc2s1,19.9 µM,–
